In PMC4707489, “A novel cell-penetrating peptide suppresses breast tumorigenesis by inhibiting β-catenin/LEF-1 signaling” (Scientific Reports, 2016):

Experiments:
β-catenin = experiment: Peptide-protein interaction by immunoprecipitation and PLA; type: binding, human
Method: Immunoprecipitation and western blotting were performed as described previously. MCF-7 and MDA-MB-231 cells were harvested in 4 °C phosphate-buffered saline and cell pellets were lysed with RIPA lysis buffer (Millipore, Bedford, MA, USA) for 30 min on ice. Cell lysis supernatant liquid was obtained by centrifugation at 10,000 × g for 10 min, incubated with protein-G beads (Roche, Indianapolis, IN) and anti-β-catenin, and subjected to western blotting. For the western blotting assay, cellular extract proteins were separated by SDS-polyacrylamide gel (SDS-PAGE) and transferred to nitrocellulose membrane (Millipore) using a dry transfer apparatus (Bio-Rad). […]
MCF-7 and MDA-MB-231 cells were cultured in 35-mm plates with cover slides on the plate bottom and treated with NLS-BLBD-6, TAT-BLBD-6 and TAT-NLS-BLBD-6 peptide for 24 hr. […] For the immunofluorescence assay, the slides were incubated with primary antibodies, anti-β-catenin (Epitomics) and anti-TAT (Santa Cruz), for 6 hr, and Alexa-488 fluorescence secondary antibodies for 1 hr. […] For the TUNEL assay, apoptosis was analyzed by the Apo-BrdU-red DNA Fragmentation Assay kit, according to the manufacturer’s protocol (BioVision, Mountain View, CA, USA). For the PLA, the protein–protein interaction assay was analyzed by Duolink® using PLA® Technology, according to the manufacturer’s protocol (Olink Bioscience, Uppsala, Sweden). […]

MDA-MB-231 cells [1] = experiment: Cell cycle analysis, sub-G1 (propidium iodide, flow cytometry); type: cell-based, human; conditions: MDA-MB-231, 100 μmol/l peptide, flow cytometry (Fig. 3a)
Method: MCF-7 and MDA-MB-231 cells were plated in 6-well plates for 24 hr, and the medium was replaced with fresh culture medium containing 100 μmol/l peptide. After incubation for 24 hr, the cells were harvested by trypsinization and then fixed with 70% 4 °C ethanol. Intracellular DNA was stained with […] propidium iodide in the dark for 30 min at room temperature, and the percentages of sub-G1 cells were determined by flow cytometry (BD LSRII analyzer; BD Biosciences).

MCF-7 cells = experiment: Colony-formation assay; type: cell-based, human; conditions: MCF-7, 100 μmol/l, 14 day post-transfection (Fig. 3e)
Method: (§1) Transwell chambers of […] pore size were used in the in vitro invasion assay. MCF-7 and MDA-MB-231 cells were seeded onto the upper chamber and incubated with TAT-NLS-BLBD-6 and TAT-NLS-BLBD-6m peptide and 10% fetal bovine serum medium were added to the bottom chamber well. After 24 hr, cells invading the lower chamber were fixed with 4% paraformaldehyde solution and stained with 0.1% crystal violet for 30 min at 37 °C. Three random field images were obtained by microscopy, and the number of invading cells were counted. For the migration assay, MCF-7 and MDA-MB-231 cells were seeded onto 6-well plates. After 24 hr, an artificial wound was created using a 10-μl pipette tip, and the wound was incubated with TAT-NLS-BLBD-6 or TAT-NLS-BLBD-6m for 24 hr at 37 °C. The images of wound healing were captured by microscopy, and the wound healing distances were calculated by Image J (U.S. National Institutes of Health, Bethesda, MD, USA). For the colony formation assay, MCF-7 and MDA-MB-231 cells were seeded into 10-cm dishes with the medium containing TAT-NLS-BLBD-6 or TAT-NLS-BLBD-6m. After 2 weeks, cells were fixed with 4% paraformaldehyde solution and stained with 0.1% crystal violet for 30 min at 37 °C.

MDA-MB-231 cells [2] = experiment: Colony-formation assay; type: cell-based, human; conditions: MDA-MB-231, 100 μmol/l, 14 day post-transfection (Fig. 3e)
Method: as §1

[3] = tested on: β-catenin/TCF4/LEF-1 downstream genes; experiment: Q-PCR of 27 candidate genes in MCF-7; type: cell-based, human; conditions: MCF-7, 100 μmol/l, 48 hr post-transfection, relative to TAT-NLS-BLBD-6m (Fig. 6d)
Method: (§2) Total RNA was isolated by Trizol reagent (Invitrogen, Carlsbad, CA, USA) and reverse transcribed to produce cDNA using the Deoxy + HiSpec reverse transcriptase kit (Yeastern, Taipei, Taiwan) according to the manufacturer instructions. Q-PCR was analyzed with SYBR Green Master Mix (Applied Biosystems, Stockholm, Sweden) and subjected to quantitation in an […]. The primers used for PCR are given in Supplementary Table S5 online. The Q-PCR data were normalized to 18S cDNA levels.

[4] = tested on: β-catenin/TCF4/LEF-1 downstream genes; experiment: Q-PCR of 27 candidate genes in MDA-MB-231; type: cell-based, human; conditions: MDA-MB-231, 100 μmol/l, 48 hr post-transfection, relative to TAT-NLS-BLBD-6m (Fig. 6e)
Method: as §2

[5] = tested on: β-catenin/TCF4/LEF downstream genes; experiment: Q-PCR of downstream genes in ZR-75-30; type: cell-based, human; conditions: ZR-75-30, 100 μmol/l, 48 hr post-transfection, relative to TAT-NLS-BLBD-6m (Fig. 6g)
Method: as §2

H-TAT-NLS-ATDEMIPF-NH2 [TAT-NLS-BLBD-6]
binding to β-catenin (β-catenin; MCF-7 cell nuclei, immunoprecipitation and PLA, 2 hr post-transfection (Fig. 2b,c)): bound to the β-catenin elements | binding to β-catenin (β-catenin; MDA-MB-231 cell nuclei, PLA, 100 μmol/l, 2 hr post-transfection (Fig. 2c)): bound to the β-catenin elements | sub-G1 phase region (pro-apoptotic effect) (MDA-MB-231 cells [1]): 43.10% | colony formation (MCF-7 cells): inhibited the mobility and proliferation | colony formation (MDA-MB-231 cells [2]): inhibited the mobility and proliferation | gene expression of the 27 candidate genes [3]: decreased | gene expression of the 27 candidate genes [4]: decreased | expression of β-catenin/TCF4/LEF downstream genes [5]: inhibits | cell growth of embryonic kidney cells (HEK293 cells): did not inhibit the growth
